Literature values in patent US9662356B1, “Propolis-metal nanoparticle composition and methods of use” (Vets Plus, Inc., priority 2015, dated 2017).

System: otitis externa
Conditions: case history: treated previously over the course of the year

| Compound | outcome of previous antibiotic treatment of otitis externa |
| --- | --- |
| C[C@@H]1[C@H](O)[C@@H](C)/C=C/C=C/CC/C=C/C=C/C=C/C=C/C(O[C@H]2O[C@H](C)[C@@H](O)[C@H](N)[C@@H]2O)CC2O[C@](O)(CC(O)C(O)CCC(O)CC(O)CC(O)CC(=O)O[C@H]1C)CC(O)C2C(=O)O (stereo partly drawn) [nystatin] | to no avail |
| neomycin | to no avail |
| polymyxin B | to no avail |
